Structures are written as SMILES.

As a reminder, the residual activity is the signal under treatment as a percentage of the control signal.

Chain of MAP3K2 (human) (Q9Y2U5 whole entry, looked up): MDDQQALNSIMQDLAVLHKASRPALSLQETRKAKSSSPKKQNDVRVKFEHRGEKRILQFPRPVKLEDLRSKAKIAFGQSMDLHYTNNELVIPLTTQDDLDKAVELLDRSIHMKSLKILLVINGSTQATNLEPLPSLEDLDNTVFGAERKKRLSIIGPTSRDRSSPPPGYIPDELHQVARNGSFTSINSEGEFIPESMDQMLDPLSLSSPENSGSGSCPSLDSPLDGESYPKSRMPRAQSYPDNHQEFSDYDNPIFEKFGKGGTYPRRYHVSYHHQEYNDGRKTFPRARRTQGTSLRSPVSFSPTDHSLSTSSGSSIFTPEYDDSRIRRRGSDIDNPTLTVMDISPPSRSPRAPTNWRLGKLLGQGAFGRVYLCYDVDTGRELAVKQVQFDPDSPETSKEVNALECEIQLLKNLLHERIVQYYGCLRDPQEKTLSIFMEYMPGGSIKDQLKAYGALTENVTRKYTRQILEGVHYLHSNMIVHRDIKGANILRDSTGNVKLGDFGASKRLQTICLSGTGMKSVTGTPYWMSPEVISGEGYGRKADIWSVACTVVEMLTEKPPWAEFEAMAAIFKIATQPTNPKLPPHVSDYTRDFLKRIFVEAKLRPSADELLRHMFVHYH
Chain of CAMKK1 (human) (Q8N5S9 whole entry, looked up): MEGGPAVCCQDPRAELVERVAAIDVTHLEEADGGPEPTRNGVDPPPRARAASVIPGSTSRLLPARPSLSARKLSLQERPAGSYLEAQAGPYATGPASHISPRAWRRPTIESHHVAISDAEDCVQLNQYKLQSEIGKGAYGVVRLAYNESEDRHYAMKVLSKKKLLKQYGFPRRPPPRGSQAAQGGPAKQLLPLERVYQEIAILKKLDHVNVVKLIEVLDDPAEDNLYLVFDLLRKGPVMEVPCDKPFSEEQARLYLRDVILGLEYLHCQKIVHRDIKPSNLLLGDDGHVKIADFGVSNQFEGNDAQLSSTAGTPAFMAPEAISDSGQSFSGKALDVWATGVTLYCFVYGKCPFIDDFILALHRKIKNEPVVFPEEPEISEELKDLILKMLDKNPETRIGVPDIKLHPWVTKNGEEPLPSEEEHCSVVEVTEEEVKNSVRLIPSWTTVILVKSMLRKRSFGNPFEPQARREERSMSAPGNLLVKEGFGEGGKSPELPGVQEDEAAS
Chain of CAMK1G (human) (Q96NX5 whole entry, looked up): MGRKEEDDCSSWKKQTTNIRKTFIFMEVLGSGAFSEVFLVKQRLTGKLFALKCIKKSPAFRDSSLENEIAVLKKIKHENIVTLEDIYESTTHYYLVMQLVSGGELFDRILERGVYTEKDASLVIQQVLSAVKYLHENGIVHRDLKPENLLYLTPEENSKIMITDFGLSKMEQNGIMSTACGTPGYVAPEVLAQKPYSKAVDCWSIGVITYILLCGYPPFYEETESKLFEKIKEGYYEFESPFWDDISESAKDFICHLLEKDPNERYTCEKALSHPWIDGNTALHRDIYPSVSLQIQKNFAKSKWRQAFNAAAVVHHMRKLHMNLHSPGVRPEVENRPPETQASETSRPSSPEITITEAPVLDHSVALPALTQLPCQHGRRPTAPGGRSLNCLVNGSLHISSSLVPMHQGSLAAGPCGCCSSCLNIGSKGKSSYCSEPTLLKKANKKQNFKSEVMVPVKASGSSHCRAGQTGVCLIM
Chain of EGFR (human) (P00533 whole entry, looked up): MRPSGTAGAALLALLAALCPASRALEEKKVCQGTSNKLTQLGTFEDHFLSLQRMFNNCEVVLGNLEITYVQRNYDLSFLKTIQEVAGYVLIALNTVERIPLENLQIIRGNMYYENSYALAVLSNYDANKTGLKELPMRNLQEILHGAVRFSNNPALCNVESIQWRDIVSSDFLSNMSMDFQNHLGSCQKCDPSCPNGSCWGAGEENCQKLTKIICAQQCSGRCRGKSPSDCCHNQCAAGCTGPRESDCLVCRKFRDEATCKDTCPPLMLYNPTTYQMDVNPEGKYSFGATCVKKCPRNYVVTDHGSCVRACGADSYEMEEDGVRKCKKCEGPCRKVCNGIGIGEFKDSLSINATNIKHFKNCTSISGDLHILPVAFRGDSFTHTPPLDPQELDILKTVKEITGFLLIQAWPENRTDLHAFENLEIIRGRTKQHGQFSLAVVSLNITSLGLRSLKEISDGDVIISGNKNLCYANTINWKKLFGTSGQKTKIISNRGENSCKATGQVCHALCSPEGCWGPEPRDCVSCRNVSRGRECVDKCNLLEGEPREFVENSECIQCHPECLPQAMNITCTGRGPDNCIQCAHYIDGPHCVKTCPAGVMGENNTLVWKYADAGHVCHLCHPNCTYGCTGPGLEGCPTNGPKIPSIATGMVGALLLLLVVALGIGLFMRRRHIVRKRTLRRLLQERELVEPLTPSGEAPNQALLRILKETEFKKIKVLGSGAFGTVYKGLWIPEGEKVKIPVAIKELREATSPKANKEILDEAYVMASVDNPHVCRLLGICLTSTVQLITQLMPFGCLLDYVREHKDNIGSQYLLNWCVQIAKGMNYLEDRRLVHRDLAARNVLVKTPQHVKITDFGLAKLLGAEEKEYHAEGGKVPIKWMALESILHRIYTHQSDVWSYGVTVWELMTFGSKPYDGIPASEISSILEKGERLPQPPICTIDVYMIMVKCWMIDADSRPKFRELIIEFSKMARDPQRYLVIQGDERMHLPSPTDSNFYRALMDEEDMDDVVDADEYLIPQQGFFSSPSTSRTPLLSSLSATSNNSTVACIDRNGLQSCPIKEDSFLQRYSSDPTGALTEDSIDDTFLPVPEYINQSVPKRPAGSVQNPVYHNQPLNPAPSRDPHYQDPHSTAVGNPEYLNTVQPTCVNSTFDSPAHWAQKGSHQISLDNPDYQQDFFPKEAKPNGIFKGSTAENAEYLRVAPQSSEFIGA

The first experiment deals with YES1 (human) (UniProt P07947). As to the kind of experiment: radiometric filter-binding kinase assay, Kinase HotSpot. The settings on record: compound 0.5 µM; ATP 10 µM.
Chain of YES1 (human) (P07947 whole entry, looked up): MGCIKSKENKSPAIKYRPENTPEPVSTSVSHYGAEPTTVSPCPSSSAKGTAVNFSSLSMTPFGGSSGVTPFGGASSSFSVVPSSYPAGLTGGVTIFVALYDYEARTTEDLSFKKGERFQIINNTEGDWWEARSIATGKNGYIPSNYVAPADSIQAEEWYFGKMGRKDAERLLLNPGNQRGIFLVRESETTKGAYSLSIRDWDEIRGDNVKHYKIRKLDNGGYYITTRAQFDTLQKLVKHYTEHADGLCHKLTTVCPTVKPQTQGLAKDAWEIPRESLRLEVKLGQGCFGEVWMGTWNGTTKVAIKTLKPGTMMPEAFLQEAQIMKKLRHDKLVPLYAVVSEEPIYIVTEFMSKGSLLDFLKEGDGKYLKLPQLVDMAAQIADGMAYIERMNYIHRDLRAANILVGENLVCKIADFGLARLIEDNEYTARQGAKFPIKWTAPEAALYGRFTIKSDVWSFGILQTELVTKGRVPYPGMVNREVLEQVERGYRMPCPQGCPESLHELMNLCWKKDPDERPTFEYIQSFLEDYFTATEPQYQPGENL
Turning to `N#C/C(=C(/N)Sc1ccc(N)cc1)c1ccccc1C(F)(F)F`, the residual activity came to 111%.
For `c1ccc(-c2n[nH]cc2-c2ccnc3ccccc23)nc1`, the residual activity turned out to be 93.3%.
Still for that read-out and setting: the value for `Nc1ccc2ncnc(NCCc3ccc(Oc4ccccc4)cc3)c2c1` was 112%.

A further experiment addresses STK4 (human) (UniProt Q13043). Described as above. As to conditions: compound 0.5 µM; ATP 10 µM.
On to `N#C/C(=C(/N)Sc1ccc(N)cc1)c1ccccc1C(F)(F)F`, for which the residual activity turned out to be 89.7%.
With `c1ccc(-c2n[nH]cc2-c2ccnc3ccccc23)nc1`, the residual activity turned out to be 101%.
Still for that read-out and setting: the figure for `Nc1ccc2ncnc(NCCc3ccc(Oc4ccccc4)cc3)c2c1` is 95.8%.

A further experiment deals with MAPKAPK5 (human) (UniProt Q8IW41). Described as above. As to conditions: compound 0.5 µM; ATP 10 µM.
Chain of MAPKAPK5 (human) (Q8IW41 whole entry, looked up): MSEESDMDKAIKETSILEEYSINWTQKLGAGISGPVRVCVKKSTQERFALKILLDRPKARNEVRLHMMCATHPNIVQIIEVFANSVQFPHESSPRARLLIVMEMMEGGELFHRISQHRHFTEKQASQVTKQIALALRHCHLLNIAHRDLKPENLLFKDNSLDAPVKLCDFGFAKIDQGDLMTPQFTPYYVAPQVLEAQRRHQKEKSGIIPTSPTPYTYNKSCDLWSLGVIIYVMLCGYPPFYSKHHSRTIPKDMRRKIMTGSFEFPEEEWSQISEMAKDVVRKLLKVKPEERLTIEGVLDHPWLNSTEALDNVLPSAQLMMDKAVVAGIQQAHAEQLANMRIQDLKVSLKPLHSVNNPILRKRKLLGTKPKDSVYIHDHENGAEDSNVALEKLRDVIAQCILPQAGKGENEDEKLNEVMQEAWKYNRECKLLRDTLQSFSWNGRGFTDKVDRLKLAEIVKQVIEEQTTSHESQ
As to `N#C/C(=C(/N)Sc1ccc(N)cc1)c1ccccc1C(F)(F)F`, the residual activity turned out to be 89.9%.
The same measure, in the same setting: the value for `c1ccc(-c2n[nH]cc2-c2ccnc3ccccc23)nc1` was 95.6%; that for `Nc1ccc2ncnc(NCCc3ccc(Oc4ccccc4)cc3)c2c1` was 101%.

In another experiment the target is NEK9 (human) (UniProt Q8TD19). The experiment is described as above. The settings on record: compound 0.5 µM; ATP 10 µM.
As to `N#C/C(=C(/N)Sc1ccc(N)cc1)c1ccccc1C(F)(F)F`, the residual activity worked out at 99.2%.
Regarding `c1ccc(-c2n[nH]cc2-c2ccnc3ccccc23)nc1`, the residual activity was determined as 94.7%.
On the same count and under the same terms, the figure for `Nc1ccc2ncnc(NCCc3ccc(Oc4ccccc4)cc3)c2c1` is 95.8%.

The target of another experiment is MST1R (human) (UniProt Q04912). The experiment is described as above. The settings on record: compound 0.5 µM; ATP 10 µM.
Take `N#C/C(=C(/N)Sc1ccc(N)cc1)c1ccccc1C(F)(F)F`: the residual activity turned out to be 90.4%.
On the same count and under the same terms, the figure for `c1ccc(-c2n[nH]cc2-c2ccnc3ccccc23)nc1` is 99.9%.
On the same count and under the same terms, the figure for `Nc1ccc2ncnc(NCCc3ccc(Oc4ccccc4)cc3)c2c1` is 97.2%.

Another experiment addresses MARK1 (human) (UniProt Q9P0L2). The experiment is described as above. As to conditions: compound 0.5 µM; ATP 10 µM.
Turning to `N#C/C(=C(/N)Sc1ccc(N)cc1)c1ccccc1C(F)(F)F`, the residual activity stood at 99.9%.
The same measure, in the same setting: the value for `c1ccc(-c2n[nH]cc2-c2ccnc3ccccc23)nc1` was 79.2%.
Still for that read-out and setting: the value for `Nc1ccc2ncnc(NCCc3ccc(Oc4ccccc4)cc3)c2c1` was 103%.

The target in a further experiment is AKT2 (human) (UniProt P31751). The description is as above. The settings on record: compound 0.5 µM; ATP 10 µM.
Take `N#C/C(=C(/N)Sc1ccc(N)cc1)c1ccccc1C(F)(F)F`: the residual activity is 102%.
Same read-out and setting: the figure for `c1ccc(-c2n[nH]cc2-c2ccnc3ccccc23)nc1` is 93%.
Same read-out and setting: the figure for `Nc1ccc2ncnc(NCCc3ccc(Oc4ccccc4)cc3)c2c1` is 101%.

The target of a further experiment is MAPK1 (human) (UniProt P28482). The experiment is described as above. The settings on record: compound 0.5 µM; ATP 10 µM.
Turning to `N#C/C(=C(/N)Sc1ccc(N)cc1)c1ccccc1C(F)(F)F`, the residual activity came to 86%.
Same read-out and setting: the value for `c1ccc(-c2n[nH]cc2-c2ccnc3ccccc23)nc1` was 108%; that for `Nc1ccc2ncnc(NCCc3ccc(Oc4ccccc4)cc3)c2c1` was 90.1%.

For the next experiment, the target named is EPHA7 (human) (UniProt Q15375). The experiment is described as above. As to conditions: compound 0.5 µM; ATP 10 µM.
For the compound `N#C/C(=C(/N)Sc1ccc(N)cc1)c1ccccc1C(F)(F)F`, the residual activity was determined as 105%.
Still for that read-out and setting: the figure for `c1ccc(-c2n[nH]cc2-c2ccnc3ccccc23)nc1` is 91.4%; for `Nc1ccc2ncnc(NCCc3ccc(Oc4ccccc4)cc3)c2c1` it is 104%.

Another experiment addresses PDPK1 (human) (UniProt O15530). The experiment is described as above. As to conditions: compound 0.5 µM; ATP 10 µM.
With `N#C/C(=C(/N)Sc1ccc(N)cc1)c1ccccc1C(F)(F)F`, the residual activity was 103%.
Regarding `c1ccc(-c2n[nH]cc2-c2ccnc3ccccc23)nc1`, the residual activity came out at 93.8%.
Turning to `Nc1ccc2ncnc(NCCc3ccc(Oc4ccccc4)cc3)c2c1`, the residual activity stood at 105%.

Another experiment has as its target EGFR (human) (UniProt P00533). The experiment is described as above. The settings on record: compound 0.5 µM; ATP 10 µM.
For `N#C/C(=C(/N)Sc1ccc(N)cc1)c1ccccc1C(F)(F)F`, the residual activity was found to be 97.3%.
In the case of `c1ccc(-c2n[nH]cc2-c2ccnc3ccccc23)nc1`, the residual activity was 81.8%.
The same measure, in the same setting: the value for `Nc1ccc2ncnc(NCCc3ccc(Oc4ccccc4)cc3)c2c1` was 112%.

Another experiment has as its target GSK3A (human) (UniProt P49840). Described as above. The settings on record: compound 0.5 µM; ATP 10 µM.
With `N#C/C(=C(/N)Sc1ccc(N)cc1)c1ccccc1C(F)(F)F`, the residual activity was 110%.
Still for that read-out and setting: the figure for `c1ccc(-c2n[nH]cc2-c2ccnc3ccccc23)nc1` is 95.1%; for `Nc1ccc2ncnc(NCCc3ccc(Oc4ccccc4)cc3)c2c1` it is 110%.

The next experiment addresses MAP3K2 (human) (UniProt Q9Y2U5). The description is as above. As to conditions: compound 0.5 µM; ATP 10 µM.
As to `N#C/C(=C(/N)Sc1ccc(N)cc1)c1ccccc1C(F)(F)F`, the residual activity stood at 115%.
Same read-out and setting: the value for `c1ccc(-c2n[nH]cc2-c2ccnc3ccccc23)nc1` was 91.2%.
Turning to `Nc1ccc2ncnc(NCCc3ccc(Oc4ccccc4)cc3)c2c1`, the residual activity amounted to 98.4%.

The target in a further experiment is MAPKAPK3 (human) (UniProt Q16644). The description is as above. The settings on record: compound 0.5 µM; ATP 10 µM.
Regarding `N#C/C(=C(/N)Sc1ccc(N)cc1)c1ccccc1C(F)(F)F`, the residual activity worked out at 102%.
On to `c1ccc(-c2n[nH]cc2-c2ccnc3ccccc23)nc1`, for which the residual activity was 92.9%.
As to `Nc1ccc2ncnc(NCCc3ccc(Oc4ccccc4)cc3)c2c1`, the residual activity was determined as 101%.

For a further experiment, the target named is CDK5 CDK5R1 p25 (human) (UniProt Q00535+Q15078). The description is as above. The settings on record: compound 0.5 µM; ATP 10 µM.
For `N#C/C(=C(/N)Sc1ccc(N)cc1)c1ccccc1C(F)(F)F`, the residual activity turned out to be 93.1%.
In the case of `c1ccc(-c2n[nH]cc2-c2ccnc3ccccc23)nc1`, the residual activity worked out at 97.2%.
The same measure, in the same setting: the value for `Nc1ccc2ncnc(NCCc3ccc(Oc4ccccc4)cc3)c2c1` was 90.6%.

Another experiment has as its target CAMK1G (human) (UniProt Q96NX5). The description is as above. As to conditions: compound 0.5 µM; ATP 10 µM.
As to `N#C/C(=C(/N)Sc1ccc(N)cc1)c1ccccc1C(F)(F)F`, the residual activity is 96.6%.
The same measure, in the same setting: the figure for `c1ccc(-c2n[nH]cc2-c2ccnc3ccccc23)nc1` is 102%; for `Nc1ccc2ncnc(NCCc3ccc(Oc4ccccc4)cc3)c2c1` it is 102%.

A further experiment concerns the target STK25 (human) (UniProt O00506). Described as above. As to conditions: compound 0.5 µM; ATP 10 µM.
Turning to `N#C/C(=C(/N)Sc1ccc(N)cc1)c1ccccc1C(F)(F)F`, the residual activity is 114%.
Same read-out and setting: the figure for `c1ccc(-c2n[nH]cc2-c2ccnc3ccccc23)nc1` is 96.9%; for `Nc1ccc2ncnc(NCCc3ccc(Oc4ccccc4)cc3)c2c1` it is 116%.

A further experiment concerns the target CAMKK1 (human) (UniProt Q8N5S9). Described as above. The settings on record: compound 0.5 µM; ATP 10 µM.
In the case of `N#C/C(=C(/N)Sc1ccc(N)cc1)c1ccccc1C(F)(F)F`, the residual activity was 117%.
For the compound `c1ccc(-c2n[nH]cc2-c2ccnc3ccccc23)nc1`, the residual activity is 109%.
The same measure, in the same setting: the figure for `Nc1ccc2ncnc(NCCc3ccc(Oc4ccccc4)cc3)c2c1` is 119%.

The target in another experiment is PDGFRA (human) (UniProt P16234). The experiment is described as above. As to conditions: compound 0.5 µM; ATP 10 µM.
`N#C/C(=C(/N)Sc1ccc(N)cc1)c1ccccc1C(F)(F)F`: the residual activity was 99.5%.
With `c1ccc(-c2n[nH]cc2-c2ccnc3ccccc23)nc1`, the residual activity is 98.1%.
On the same count and under the same terms, the value for `Nc1ccc2ncnc(NCCc3ccc(Oc4ccccc4)cc3)c2c1` was 98.5%.

For another experiment, the target named is HIPK3 (human) (UniProt Q9H422). Described as above. The settings on record: compound 0.5 µM; ATP 10 µM.
Chain of HIPK3 (human) (Q9H422 whole entry, looked up): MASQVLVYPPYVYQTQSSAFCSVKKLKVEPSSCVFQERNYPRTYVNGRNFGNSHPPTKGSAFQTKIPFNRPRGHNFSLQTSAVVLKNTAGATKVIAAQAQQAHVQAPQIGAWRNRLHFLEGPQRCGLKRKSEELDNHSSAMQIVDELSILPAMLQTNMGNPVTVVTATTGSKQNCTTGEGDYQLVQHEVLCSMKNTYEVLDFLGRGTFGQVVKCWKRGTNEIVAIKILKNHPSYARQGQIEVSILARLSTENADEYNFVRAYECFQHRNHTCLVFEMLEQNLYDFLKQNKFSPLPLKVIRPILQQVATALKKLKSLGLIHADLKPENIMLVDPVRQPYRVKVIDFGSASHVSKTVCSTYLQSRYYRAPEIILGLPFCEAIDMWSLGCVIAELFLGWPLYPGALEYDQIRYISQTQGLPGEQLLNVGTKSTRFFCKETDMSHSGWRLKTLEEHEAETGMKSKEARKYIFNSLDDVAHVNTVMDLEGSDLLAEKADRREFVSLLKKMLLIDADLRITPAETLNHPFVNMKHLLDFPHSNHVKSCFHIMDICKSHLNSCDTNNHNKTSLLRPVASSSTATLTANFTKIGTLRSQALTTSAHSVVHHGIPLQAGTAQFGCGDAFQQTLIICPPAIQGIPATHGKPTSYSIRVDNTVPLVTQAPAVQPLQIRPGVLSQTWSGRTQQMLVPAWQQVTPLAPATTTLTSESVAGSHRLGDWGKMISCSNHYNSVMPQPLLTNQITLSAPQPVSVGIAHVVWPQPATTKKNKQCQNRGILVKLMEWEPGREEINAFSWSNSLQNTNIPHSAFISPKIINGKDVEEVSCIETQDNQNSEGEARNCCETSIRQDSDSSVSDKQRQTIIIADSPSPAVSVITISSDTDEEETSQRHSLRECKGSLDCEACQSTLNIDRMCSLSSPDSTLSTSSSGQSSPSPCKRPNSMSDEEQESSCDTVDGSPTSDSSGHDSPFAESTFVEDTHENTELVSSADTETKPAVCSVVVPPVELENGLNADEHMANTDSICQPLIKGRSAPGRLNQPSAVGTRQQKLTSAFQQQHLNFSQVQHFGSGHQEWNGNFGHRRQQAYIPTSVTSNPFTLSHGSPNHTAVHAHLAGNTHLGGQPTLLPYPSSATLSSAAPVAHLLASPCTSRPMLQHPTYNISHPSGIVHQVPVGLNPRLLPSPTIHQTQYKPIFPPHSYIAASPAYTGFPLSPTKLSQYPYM
Consider `N#C/C(=C(/N)Sc1ccc(N)cc1)c1ccccc1C(F)(F)F`, for which the residual activity was found to be 114%.
On the same count and under the same terms, the value for `c1ccc(-c2n[nH]cc2-c2ccnc3ccccc23)nc1` was 97%.
`Nc1ccc2ncnc(NCCc3ccc(Oc4ccccc4)cc3)c2c1`: the residual activity is 98.6%.

The target of a further experiment is ROCK1 (human) (UniProt Q13464). The description is as above. As to conditions: compound 0.5 µM; ATP 10 µM.
For the compound `N#C/C(=C(/N)Sc1ccc(N)cc1)c1ccccc1C(F)(F)F`, the residual activity came out at 104%.
Same read-out and setting: the figure for `c1ccc(-c2n[nH]cc2-c2ccnc3ccccc23)nc1` is 103%.
The same measure, in the same setting: the figure for `Nc1ccc2ncnc(NCCc3ccc(Oc4ccccc4)cc3)c2c1` is 94.4%.

The record behind these values is the kinase profiling compilation of Christmann-Franck et al. (2016).
